Converted amounts (≈) assume the structure as drawn.
Legend:
A. baumannii Ab19 = assay: FaAST (FDAA metabolic labeling); format: cell-based, Acinetobacter baumannii; conditions: unit assumed
Procedure, shortened: (§1)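 Bacteria diluted to OD600=0.05 in CAMHB were exposed to an antibiotic concentration series with Cy5-DAA probe […] for 2 h in the dark. Per-sample fluorescence was read by flow cytometry after PBS dilution. MIC was taken from the antibiotic concentration–fluorescence curve.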

E. faecium Ef28 = assay: FaAST (FDAA metabolic labeling method); format: cell-based, Enterococcus faecium; conditions: unit assumed
Method: Take the colony to be tested that has been cultured overnight on the plate and fully mix it in normal saline to make a uniform bacterial solution. Dilute it into Cation-Adjusted Mueller Hinton Broth (CAMHB) culture medium to make a bacterial solution with OD600=0.05. • 2. Add 45 μl antibiotic solutions of different concentrations to 96-well plates (see Table 1 for antibiotic concentration gradient settings). • 3. Add 50 μl of the bacterial solution prepared in step 1 to the 96-well plate and mix well. • 4. Add 5 μl of 10 mM Cy5-DAA probe (final concentration 0.15 mM, see FIG. 1 for its structure) into each well, mix well, and cultivate in dark for 2 hours. • 5. Add 200 μl After PBS solution is diluted, the fluorescence intensity of each sample is detected by flow cytometry. […] The MIC (minimum inhibitory concentration) can be obtained by referring to this curve.

E. faecalis ATCC29212 = assay: FaAST (FDAA metabolic labeling method); format: cell-based, Enterococcus faecalis; conditions: unit assumed
Procedure, shortened: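 Bacteria at OD600=0.05 in CAMHB exposed to antibiotic concentration gradients with Cy5-DAA probe […], 2 h in the dark. Fluorescence read by flow cytometry after PBS dilution; MIC taken from the curve of fluorescence intensity versus antibiotic concentration.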

E.coli 1146 = assay: Vitek 2 drug sensitivity test; format: cell-based, Escherichia coli; on Sensibility: key: S: Drug sensitive; R: Drug resistance
S. aureus ATCC29213 = assay: BMD susceptibility test; format: cell-based, Staphylococcus aureus; conditions: unit assumed
[1] = tested on: alveolar lavage fluid sample 0203, K. pneumoniae; assay: BMD susceptibility test of patient alveolar lavage fluid; format: cell-based, Klebsiella pneumoniae; conditions: unit assumed
Source text: (§2) The results of antimicrobial susceptibility test of alveolar lavage fluid of seven patients using FDAA and BMD methods are shown in the following table. The drug-resistant bacteria are shown in bold.

[2] = tested on: alveolar lavage fluid sample 0226, K. pneumoniae; assay: as above; format: cell-based, Klebsiella pneumoniae; conditions: unit assumed
Source text: as §2

E.coli 1113 = assay: Vitek 2 drug sensitivity test; format: cell-based, Escherichia coli; on Sensibility: key: S: Drug sensitive; R: Drug resistance
Ec ATCC 25922 = assay: FaAST (FDAA metabolic labeling); format: cell-based, Escherichia coli; conditions: unit assumed
Procedure, shortened: as §1

E. coli Ec11 = assay: FaAST (FDAA metabolic labeling); format: cell-based, Escherichia coli; conditions: unit assumed
Procedure, shortened: as §1

P. aeruginosa Pa2 = assay: FaAST (FDAA metabolic labeling); format: cell-based, Pseudomonas aeruginosa; conditions: unit assumed
Method: (§3) The specific experimental steps are as follows: • 1. Take the colony to be tested that has been cultured overnight on the plate and fully mix it in normal saline to make a uniform bacterial solution. Dilute it into CAMHB medium to make a bacterial solution with OD600=0.05. • 2. Add 45 μl antibiotic solutions to be tested of different concentrations to 96-well plates (see Table 3 for antibiotic concentration gradient settings). • 3. Add 50 μl of bacterial solution prepared in Step 1 to the 96-well plate and mix well. • 4.5 μl of 10 mM Cy5-DAA probe was added to each well (final concentration was 0.15 mM, and its structure was shown in FIG. 1). After mixing, the probe was incubated for 2 hours in the dark. • 5. After dilution with 200 μl PBS solution, the fluorescence intensity of each sample was detected by flow cytometry. The flow detection results are shown in the attached FIG. 4-5, showing the curve of antibiotic concentration gradient and fluorescence intensity, and the MIC (minimum inhibitory concentration) is obtained by referring to this curve.
(§4) Antibiotic resistant strains are shown in bold in the table below.

Pa ATCC 27853 = assay: FaAST (FDAA metabolic labeling); format: cell-based, Pseudomonas aeruginosa; conditions: unit assumed
Method: as §3, §4

P. aeruginosa Pa3 = assay: FaAST (FDAA metabolic labeling); format: cell-based, Pseudomonas aeruginosa; conditions: unit assumed
Method: as §3, §4

[3] = tested on: alveolar lavage fluid sample 0204, A. baumannii; assay: BMD susceptibility test of patient alveolar lavage fluid; format: cell-based, Acinetobacter baumannii; conditions: unit assumed
S. aureus Sa23 = assay: BMD susceptibility test; format: cell-based, Staphylococcus aureus; conditions: unit assumed
[4] = tested on: Acinetobacter baumannii ABA16; assay: FaAST with DAA-Cy5-2 probe; format: cell-based; conditions: unit assumed
Method: (§5) With reference to the flow chart of the rapid detection method of antimicrobial susceptibility test based on FDAA metabolic markers shown in FIG. 3, FDAA is used for the detection of antimicrobial susceptibility test of alveolar lavage fluid. The specific experimental steps are as follows: • 1. Mix bronchoalveolar lavage fluid (BALF, 10 ml) of patients with hospital acquired pneumonia with cation regulated broth medium (CAMHB, 10 ml) of twice the concentration to prepare the bacterial fluid to be tested. • 2. Add 45 μl antibiotic solutions of different concentrations to the 96-well plate separately (see Table 1 for antibiotic concentration gradient settings). • 3. Add 50 μl of the bacterial solution prepared in step 1 to the 96-well plate and mix well. • 4. Add 5 μl of 10 mM Cy5-DAA probe (final concentration 0.15 mM, see FIG. 1 for its structure) into each well, mix well, and then cultivate in dark for 2 hours. • 5. Add 200 μl PBS solution for dilution, and then use flow cytometry to detect the fluorescence intensity of each sample.
(§6) The specific steps are the same as in Example 5. […] The minimum inhibitory concentration of antibiotics was obtained according to the fluorescence signal intensity of flow detection, and the statistical results are shown in Table 7.

[5] = tested on: Pseudomonas aeruginosa PAE853; assay: FaAST with DAA-Cy5-2 probe; format: cell-based; conditions: unit assumed
Method: as §5, §6

[6] = tested on: bacteria contained in alveolar lavage fluid; assay: Vitek 2 drug sensitivity test of alveolar lavage fluid; format: cell-based; on Sensibility: key: S: Drug sensitive; R: Drug resistance

SMILES: C[C@H]1COc2c(N3CCN(C)CC3)c(F)cc3c(=O)c(C(=O)O)cn1c23 [Levofloxacin, levofloxacin]
- FaAST (MIC) (A. baumannii Ab19): 0.5 µg/mL
- FaAST (MIC) (E. faecium Ef28): 64 µg/mL
- FaAST (MIC) (E. faecalis ATCC29212): 1 µg/mL
- Sensibility (E.coli 1146): R
- MIC (E.coli 1146; Escherichia coli): ≥ 8 µg/mL
- BMD (MIC) (S. aureus ATCC29213): ≤ 0.25 µg/mL
- BMD (MIC) [1]: 0.25 µg/mL
- BMD (MIC) [2]: 1 µg/mL
- MIC, Vitek 2 (E.coli 1113): > 8 µg/mL
- Sensibility (E.coli 1113): R
- FaAST (MIC) (Ec ATCC 25922): ≤ 0.25 µg/mL
- FaAST (MIC) (E. coli Ec11): 0.5 µg/mL
- FaAST (MIC) (P. aeruginosa Pa2): 0.5 µg/mL
- FaAST (MIC) (Pa ATCC 27853): 0.5 µg/mL
- FaAST (MIC) (P. aeruginosa Pa3): 0.5 µg/mL
- BMD (MIC) [3]: 0.5 µg/mL
- BMD (MIC) (S. aureus Sa23): 1 µg/mL
- MIC, FaAST [4]: 32 µg/mL (≈ 88.6 µM)
- MIC, FaAST [5]: 0.5 µg/mL (≈ 1.38 µM)
- MIC [6]: ≥ 8 µg/mL
- Sensibility [6]: R

From US20240240224A1, “FLUORESCENT D-TYPE AMINO ACID METABOLISM MARKER-BASED METHOD FOR DETECTING ANTIBACTERIAL DRUG SENSITIVITY TEST” (priority 2020, published 2024)
